{"source": "patent US20040014637A1", "about": "“Mechanism for the inactivation of insulin receptor and uses in the treatment of type II diabetes” (McGill University, priority 1998, published 2004)", "key": {"[1]": {"molecular_target": "T1, insulin receptor kinase (IRK) β-subunit (Rattus norvegicus, UniProt P15127)", "T1 construct": "from tissue; host or cells: rat liver; endosome (EN) and plasma membrane (PM) fractions", "T1 sequence (P15127 27-759 limits assumed)": "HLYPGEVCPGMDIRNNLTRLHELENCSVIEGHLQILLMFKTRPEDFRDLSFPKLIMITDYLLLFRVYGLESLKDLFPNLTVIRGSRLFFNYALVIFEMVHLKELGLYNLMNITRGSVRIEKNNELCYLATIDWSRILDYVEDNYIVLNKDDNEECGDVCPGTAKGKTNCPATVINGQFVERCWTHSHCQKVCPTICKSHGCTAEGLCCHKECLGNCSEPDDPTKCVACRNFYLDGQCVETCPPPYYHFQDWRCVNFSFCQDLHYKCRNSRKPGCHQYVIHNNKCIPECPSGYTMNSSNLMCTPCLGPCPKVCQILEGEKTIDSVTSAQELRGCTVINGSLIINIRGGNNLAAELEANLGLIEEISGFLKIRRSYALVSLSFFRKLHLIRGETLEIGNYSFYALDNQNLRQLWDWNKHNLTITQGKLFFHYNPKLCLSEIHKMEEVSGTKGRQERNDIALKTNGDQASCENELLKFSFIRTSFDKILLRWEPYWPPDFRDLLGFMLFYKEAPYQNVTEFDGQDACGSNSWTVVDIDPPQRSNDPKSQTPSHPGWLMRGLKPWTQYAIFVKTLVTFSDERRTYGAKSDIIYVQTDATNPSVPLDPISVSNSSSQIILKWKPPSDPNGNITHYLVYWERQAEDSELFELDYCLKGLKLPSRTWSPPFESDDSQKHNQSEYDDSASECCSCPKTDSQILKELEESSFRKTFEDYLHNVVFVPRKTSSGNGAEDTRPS", "T1 sequence (P15127 764-1383 limits assumed)": "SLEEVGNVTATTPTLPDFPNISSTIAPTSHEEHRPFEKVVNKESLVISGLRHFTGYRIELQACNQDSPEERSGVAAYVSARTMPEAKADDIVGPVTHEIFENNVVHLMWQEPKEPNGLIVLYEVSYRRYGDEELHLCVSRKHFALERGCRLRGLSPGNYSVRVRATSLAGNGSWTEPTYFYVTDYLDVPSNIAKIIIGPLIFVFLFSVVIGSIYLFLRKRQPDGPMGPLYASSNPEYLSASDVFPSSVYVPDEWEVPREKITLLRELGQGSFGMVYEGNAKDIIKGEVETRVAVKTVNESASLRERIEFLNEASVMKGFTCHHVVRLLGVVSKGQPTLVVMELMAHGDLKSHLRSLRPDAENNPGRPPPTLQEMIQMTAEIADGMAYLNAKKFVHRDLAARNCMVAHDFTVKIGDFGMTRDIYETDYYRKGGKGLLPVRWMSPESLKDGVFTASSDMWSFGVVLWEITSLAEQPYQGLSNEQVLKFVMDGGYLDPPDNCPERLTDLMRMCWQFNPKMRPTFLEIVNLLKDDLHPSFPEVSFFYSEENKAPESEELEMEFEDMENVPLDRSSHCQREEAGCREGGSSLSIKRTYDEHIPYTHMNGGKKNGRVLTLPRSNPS", "test": "IRK β-subunit phosphotyrosine content (αPY immunoblot of WGA eluates)", "format": "biochemical", "description": "The phosphotyrosine content of endosomal IRs (ENs containing IR) was determined by subjecting lectin column (WGA-Sepharose™)-purified preparations to SDS-PAGE and immunoblotting with α960 and αPY (Faure et al. (1992) J. Biol. Chem. 267, 11215-11221). […] FIG. 1B illustrates the effect of ATP on β subunit phosphotyrosine content. WGA eluates (5 μg protein) were subjected to SDS-PAGE in 7.5% gels followed by transfer of proteins to Immobilon-P membranes. Membranes were probed with αPY or α960 antibodies followed by incubation with ^125I-GAR as second antibody and exposed for autoradiography."}, "125I-hGH binding": {"test_system": "125I-hGH binding", "test": "125I-hGH binding after preincubating endosomes with ATP", "parameters": "species or system rat", "conditions": "preincubation 37° C. 15 min, percent of control", "description": "(1992) J. Biol. Chem. 267, 11215-11221). Livers were rapidly excised, placed in ice-cold homogenizing buffer (50 mM HEPES (pH 7.4), 0.25 M sucrose, 1 mM PMSF, 1 MM MgCl2, 1 mM benzamidine) and minced before homogenization. Combined ENs and PM fractions were prepared (Faure et al. (1992) J. Biol. Chem. 267, 11215-11221) except that the buffer used throughout was that in which the livers were minced (see above). These subcellular fractions have been characterized in detail both morphologically and biochemically. […] I. et al. (1982) J. Biol. Chem. 257, 5789-5799). Protein content in the fractions was determined by a modification of Bradford's method using serum albumin as a standard (Khan, M. N. et al. […] In the present study we wished to assess whether other processes might be involved in reducing the association of intraendosomal insulin with its receptor. We examined the effect of incubating intact ENs containing IR with increasing concentrations of ATP on subsequently measured insulin and hGH binding in both solubilized and WGA-purified receptors. […] [table]"}, "[2]": {"molecular_target": "T2, insulin receptor kinase (IRK) (Rattus norvegicus, UniProt P15127)", "T2 construct": "from tissue; host or cells: rat liver; endosome (EN) and plasma membrane (PM) fractions", "T2 sequence (P15127 27-759 limits assumed)": "as the sequence (P15127 27-759 limits assumed) above", "T2 sequence (P15127 764-1383 limits assumed)": "as the sequence (P15127 764-1383 limits assumed) above", "test": "DTT-dependent reduction of endosomal IRK heterotetramer (non-reducing SDS-PAGE)", "format": "biochemical", "conditions": "ENs incubated with 5 mM ATP, 10 mM DTT, 15 min 37° C.", "description": "Endosomal pellets containing IR were resuspended (500 μg protein/ml) in a final concentration of 50 mM Tris (pH 6.9), 10% glycerol and 20 mM N-ethylmaleimide. Samples were incubated at room temperature for 5 mins and then solubilized without heating in 2.3% SDS-0.05% bromophenol blue before subjecting to SDS-PAGE in the absence of reductants (Faure et al. ([…]) J. Biol. Chem. 267, 11215-11221).\nThe above observation raised the possibility that intraluminal events were responsible for deactivation of the endosomal IRK. This led us to investigate whether there might be a conformational change in the IRK consequent to ATP-dependent acidification. To probe this possibility we incubated ENs containing IR with ATP in the presence or absence of 10 mM DTT to assess the ease with which Type I disulfide bonds might be reduced in the heterotetrameric molecule ([…]). […] Hepatic ENs containing IR were prepared 2 mins after insulin injection (1.5 μg/100 g body weight) and were incubated for 15 min at 37° C. in the absence or presence of 10 mM DTT and 5 mM ATP. The ENs were centrifuged and the pellets resuspended and treated as described above. Samples were applied without heating to SDS-PAGE (gradient resolving gel, 3-10% acrylamide) in the absence of reductant. […]"}, "[3]": {"molecular_target": "T1, insulin receptor kinase (IRK) β-subunit", "test": "2-D phosphoamino acid analysis of the IRK β-subunit", "format": "biochemical", "conditions": "ENs incubated with 1 or 5 mM γ-32P ATP, 15 min 37° C.", "description": "ENs containing IR were removed from the 0.6/1.0 M sucrose interface of the gradient used in endosomal purification, and diluted with 0.25 M sucrose to a final protein concentration of 50 μg/ml. A 30 ml aliquot was centrifuged at 200,000×gav for 40 mins prior to resuspending in 500 μl of cell-free system buffer (44 mM HEPES (pH 7.4), 0.55 M sucrose, 333 mM KCl, 11 mM NaCl, 11 mM MgCl2). Incubations were initiated by adding 500 μl of 10 mM Tricine buffer containing either 2 or 10 mM ATP at a specific activity of 0.5 mCi ^32P/mmol. After incubating for 15 min at 37° C. the reaction was stopped by adding an equal volume of ice-cold 20 mM HEPES, 0.25 M sucrose, 2 mM PMSF, 2 mM benzamidine, 4 mM Na orthovanadate and 80 mM Na fluoride. […]\nPrevious work has shown that serine/threonine phosphorylation of the β-subunit of the IRK results in an inhibition of IRK activity. We thus determined if incubating ENs containing IR with 5 mM ATP promotes the phosphorylation of IRK on serine and threonine residues. […]"}}, "data": [{"smiles": "Nc1ncnc2c1ncn2[C@@H]1O[C@H](COP(=O)(O)OP(=O)(O)OP(=O)(O)O)[C@@H](O)[C@H]1O", "note": "[ATP, adenosine 5′triphosphate]", "values": [{"measurement": "IRK phosphotyrosine content (FIG. 1B)", "setting": "[1]; 1 mM ATP, 15 min 37° C.", "value": "markedly increased"}, {"measurement": "IRK phosphotyrosine content (FIG. 1B)", "setting": "[1]; 5 mM ATP, compared to 1 mM ATP", "value": "significantly reduced"}, {"measurement": "IRK phosphotyrosine content (FIG. 1B)", "setting": "[1]; 10 mM ATP, compared to 1 mM ATP", "value": "virtually abolished"}, {"measurement": "IRK phosphotyrosine content after sequential incubations (FIG. 7A)", "setting": "[1]; preincubation 1 mM ATP 15 min, second incubation 5 mM ATP", "value": "substantial retention"}, {"measurement": "IRK phosphotyrosine content after sequential incubations", "setting": "[1]; sequential incubations in 1 mM ATP", "value": "no deleterious effect"}, {"measurement": "125I-hGH specific binding, WGA-purified endosomes", "setting": "125I-hGH binding; ATP 0.1 mM", "value": "88.7 ± 3.4", "unit": "%"}, {"measurement": "125I-hGH specific binding, solubilized endosomes", "setting": "125I-hGH binding; ATP 0.1 mM", "value": "105.0 ± 5.1", "unit": "%"}, {"measurement": "125I-hGH specific binding, WGA-purified endosomes", "setting": "125I-hGH binding; ATP 1 mM", "value": "93.3 ± 5.1", "unit": "%"}, {"measurement": "125I-hGH specific binding, solubilized endosomes", "setting": "125I-hGH binding; ATP 1 mM", "value": "84.4 ± 6.6", "unit": "%"}, {"measurement": "125I-hGH specific binding, WGA-purified endosomes", "setting": "125I-hGH binding; ATP 10 mM", "value": "75.2 ± 3.5", "unit": "%"}, {"measurement": "125I-hGH specific binding, solubilized endosomes", "setting": "125I-hGH binding; ATP 10 mM", "value": "98.3 ± 3.5", "unit": "%"}, {"measurement": "Ability of DTT to reduce tetrameric IRK molecules (FIG. 8)", "setting": "[2]", "value": "significantly decreased"}, {"measurement": "32P phosphoserine in IRK β-subunit (FIG. 5)", "setting": "[3]", "value": "no detectable"}]}]}
